Reference: ChEMBL document CHEMBL5608163, “Structure modification of anoplin for fighting resistant bacteria” (Eur J Med Chem, 2024)
Converted amounts (≈) assume the structure as drawn. Square brackets hold non-standard residues; d marks the D form. Peptide text beside a SMILES is read from it. Gly(N(CH2)2(3-indolyl)) = O=C(O)CNCCc1c[nH]c2ccccc12; N(1-naphthylmethyl)Gly = O=C(O)CNCc1cccc2ccccc12

Key:
Staphylococcus aureus [1] = assay: Antibacterial activity against Staphylococcus aureus ATCC 25923 assessed as reduction in bacterial growth measured after 24 hrs by Mueller-Hinton broth based two-fold serial dilution method; assay type: functional
Escherichia coli [2] = assay: Antibacterial activity against Escherichia coli ATCC 25922 assessed as reduction in bacterial growth measured after 24 hrs by Mueller-Hinton broth based two-fold serial dilution method; assay type: functional
Staphylococcus aureus [3] = assay: Antimicrobial activity against Staphylococcus aureus assessed as reduction in microbial growth by broth microdilution method; assay type: functional
Escherichia coli [4] = assay: Antimicrobial activity against Escherichia coli assessed as reduction in microbial growth by broth micro-dilution method; assay type: functional
Erythrocyte = assay: Hemolytic activity in mouse RBC; assay type: toxicity, cell-based

SMILES | MIC (Staphylococcus aureus [1]) [µM] | MIC (Escherichia coli [2]) [µM] | MIC (Staphylococcus aureus [3]) [µM] | MIC (Escherichia coli [4]) [µM] | HC10 (Erythrocyte) [µM]
CC[C@H](C)[C@H](NC(=O)[C@H](CCCNC(=N)N)NC(=O)[C@H](CCCCN)NC(=O)[C@H](CC(C)C)NC(=O)[C@H](CC(C)C)NC(=O)CN)C(N)=O (H-GLLKRI-NH2) | > 54.6 | 54.6 (≈ 38.1 µg/mL) | – | – | –
CC[C@H](C)[C@H](NC(=O)[C@H](CCCNC(=N)N)NC(=O)[C@@H](N)CCCCN)C(=O)N[C@@H](CCCCN)C(=O)N[C@H](C(=O)N[C@@H](CC(C)C)C(=O)N[C@@H](CC(C)C)C(N)=O)[C@@H](C)O (H-KRIKTLL-NH2) | > 70.2 | 70.2 (≈ 61.1 µg/mL) | – | – | –
CC[C@H](C)[C@H](NC(=O)[C@H](CCCNC(=N)N)NC(=O)[C@H](CCCCN)NC(=O)[C@H](CC(C)C)NC(=O)[C@@H](N)CC(C)C)C(=O)N[C@@H](CCCCN)C(=O)N[C@H](C(=O)N[C@@H](CC(C)C)C(=O)N[C@@H](CC(C)C)C(N)=O)[C@@H](C)O (H-LLKRIKTLL-NH2) | > 54.7 | 54.7 (≈ 60 µg/mL) | – | – | –
CC[C@H](C)[C@H](NC(=O)[C@H](CCCNC(=N)N)NC(=O)[C@H](CCCCN)NC(=O)[C@H](CC(C)C)NC(=O)[C@H](CC(C)C)NC(=O)CNCCc1c[nH]c2ccccc12)C(=O)N[C@@H](CCCCN)C(=O)N[C@H](C(=O)N[C@@H](CC(C)C)C(=O)N[C@@H](CC(C)C)C(N)=O)[C@@H](C)O (H-[Gly(N(CH2)2(3-indolyl))]LLKRIKTLL-NH2) | – | – | 50 | 25 | > 50
CC[C@H](C)[C@H](NC(=O)[C@H](CCCNC(=N)N)NC(=O)[C@H](CCCCN)NC(=O)[C@H](CC(C)C)NC(=O)[C@H](CC(C)C)NC(=O)CNCc1cccc2ccccc12)C(=O)N[C@@H](CCCCN)C(=O)N[C@H](C(=O)N[C@@H](CC(C)C)C(=O)N[C@@H](CC(C)C)C(N)=O)[C@@H](C)O (H-[N(1-naphthylmethyl)Gly]LLKRIKTLL-NH2) | – | – | 25 | 12.5 | > 50

Continued, in another order:

MIC (Staphylococcus aureus [1]) [µM] | MIC (Escherichia coli [2]) [µM] | MIC (Staphylococcus aureus [3]) [µM] | MIC (Escherichia coli [4]) [µM] | SMILES | HC10 (Erythrocyte) [µM]
> 53.2 | 53.2 (≈ 31.1 µg/mL) | – | – | CC(C)C[C@H](NC(=O)CN)C(=O)N[C@@H](CC(C)C)C(=O)N[C@@H](CCCCN)C(=O)N[C@@H](CCCNC(=N)N)C(N)=O (H-GLLKR-NH2) | –
> 33.9 | 33.9 (≈ 28 µg/mL) | – | – | CC[C@H](C)[C@H](NC(=O)[C@H](CCCNC(=N)N)NC(=O)[C@H](CCCCN)NC(=O)[C@H](CC(C)C)NC(=O)[C@H](CC(C)C)NC(=O)CN)C(=O)N[C@@H](CCCCN)C(N)=O (H-GLLKRIK-NH2) | –
> 24.8 | 24.8 (≈ 23 µg/mL) | – | – | CC[C@H](C)[C@H](NC(=O)[C@H](CCCNC(=N)N)NC(=O)[C@H](CCCCN)NC(=O)[C@H](CC(C)C)NC(=O)[C@H](CC(C)C)NC(=O)CN)C(=O)N[C@@H](CCCCN)C(=O)N[C@H](C(N)=O)[C@@H](C)O (H-GLLKRIKT-NH2) | –
> 41.4 | 41.4 (≈ 47.8 µg/mL) | – | – | CC[C@H](C)[C@H](NC(=O)[C@H](CCCNC(=N)N)NC(=O)[C@H](CCCCN)NC(=O)[C@H](CC(C)C)NC(=O)[C@H](CC(C)C)NC(=O)CN)C(=O)N[C@@H](CCCCN)C(=O)N[C@H](C(=O)N[C@@H](CC(C)C)C(=O)N[C@@H](CC(C)C)C(=O)O)[C@@H](C)O (H-GLLKRIKTLL-OH) | –
> 31.6 | 31.6 (≈ 31 µg/mL) | – | – | CC[C@H](C)[C@H](NC(=O)[C@H](CCCNC(=N)N)NC(=O)[C@H](CCCCN)NC(=O)[C@@H](N)CC(C)C)C(=O)N[C@@H](CCCCN)C(=O)N[C@H](C(=O)N[C@@H](CC(C)C)C(=O)N[C@@H](CC(C)C)C(N)=O)[C@@H](C)O (H-LKRIKTLL-NH2) | –
